For the test, the system named is NCI60. The test is described as follows: Cytotoxicity against human NCI60 cells. Type of test: functional, cell-based.

Calls of active or inactive are those of the source. The calls are words filed in the database; no cut-off is given here. Square brackets hold non-standard residues; d marks the D form. Peptide text beside a SMILES is read from it. * marks the point of attachment. NMeY = CN[C@@H](Cc1ccc(O)cc1)C(=O)O; NMeF = CN[C@@H](Cc1ccccc1)C(=O)O; X2 = CC(=O)CCCCC(C)CC(C)C(=O)*; X1 = C#CCCCCC(C)CC(C)C(=O)*; NMeA = CN[C@@H](C)C(=O)O

For the compound `C#CCCCCC(C)CC(C)C(=O)N(C)[C@@H](Cc1ccccc1)C(=O)N[C@@H](C)C(=O)N(C)[C@@H](C)C(=O)N(C)[C@@H](Cc1ccc(OC)cc1)C(N)=O` (some centres not stated) (X1-[NMeF]A[NMeA][NMeY](Me)-NH2), the outcome was inactive.

With `COc1ccc(C[C@@H](C(N)=O)N(C)C(=O)[C@H](C)N(C)C(=O)[C@H](C)NC(=O)[C@H](Cc2ccccc2)N(C)C(=O)C(C)CC(C)CCCCC(C)=O)cc1` (some centres not stated) (X2-[NMeF]A[NMeA][NMeY](Me)-NH2), the result was inactive.

(Values after ChEMBL document CHEMBL1158666, “Carmabins A and B, new lipopeptides from the Caribbean cyanobacterium Lyngbya majuscula” (J Nat Prod, 1998).)
